We go through one compound from patent US20100105652A1, “PURINES AS CYSTEINE PROTEASE INHIBITORS” (Glaxo Group Limited, priority 2007, published 2010).

Assay [1] has as its target T1, Falcipain-3 (Plasmodium falciparum, UniProt Q8IIL0).
T1 sequence (Q8IIL0 243-492): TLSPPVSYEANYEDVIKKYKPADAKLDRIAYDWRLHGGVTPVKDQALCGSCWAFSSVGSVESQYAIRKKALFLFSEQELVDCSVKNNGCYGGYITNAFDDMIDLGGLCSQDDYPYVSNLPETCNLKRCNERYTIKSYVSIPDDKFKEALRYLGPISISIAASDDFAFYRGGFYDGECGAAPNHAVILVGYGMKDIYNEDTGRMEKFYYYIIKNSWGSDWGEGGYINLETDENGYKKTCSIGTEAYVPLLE
Description: falcipain-3 enzymatic assay (fluorogenic substrate H-D-VLR-AFC, endpoint). It is filed as biochemical. The note with it: parasitic recombinant enzyme, pH 5.5, quenched after 60 minutes.

Assay [2] has as its system Plasmodium falciparum parasite. Description: whole cell activity against the Plasmodium falciparum parasite. It is filed as cell-based.
Assay [3] deals with T2, Falcipain-2 (Plasmodium falciparum, UniProt Q8I6U4).
T2 sequence (Q8I6U4 244-484): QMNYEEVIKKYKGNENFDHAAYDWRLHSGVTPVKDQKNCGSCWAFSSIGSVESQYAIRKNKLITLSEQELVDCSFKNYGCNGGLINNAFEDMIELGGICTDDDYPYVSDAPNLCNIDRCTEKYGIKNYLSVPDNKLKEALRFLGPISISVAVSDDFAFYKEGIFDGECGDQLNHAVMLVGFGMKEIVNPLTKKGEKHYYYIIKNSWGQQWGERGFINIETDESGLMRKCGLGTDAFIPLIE
As to the kind of experiment: falcipain-2 enzymatic assay (fluorogenic substrate H-D-VLR-AFC, endpoint). The class given is biochemical. The note with it: parasitic recombinant enzyme, pH 5.5, quenched after 60 minutes.

Molecules are shown by their SMILES. Counter-ions that a name gives are not always drawn.

In the case of `CN(C)CCCn1cnc2c(N(NC(=O)OC(C)(C)C)C3CCOCC3)nc(C#N)nc21` [Example 19, 1,1-dimethylethyl 2-{2-cyano-9-[3-(dimethylamino)propyl]-9H-purin-6-yl}-2-(tetrahydro-2H-pyran-4-yl)hydrazinecarboxylate trifluoroacetate], the results for the IC50 in assay [1], in assay [2] and in assay [3] were 15 to 150 nM, 15 to 150 nM and 2.5 to 15 nM, respectively.
